Assay results: patent US6867293B2, “Polynucleotide constructs having at least one transcriptional enhancer and encoding a modified rice EPSPS enzyme” (Syngenta Limited, priority 2000, dated 2005)
pIC50, pKi: −log10 of the molar value. Where a name gives a salt, the structure may show the parent alone.

What was measured:
[1] = tested on: sensitive w/t form of EPSPS (endogenous); test: EPSPS assay of plant extracts +/- 0.1 mM glyphosate, sensitive w/t form; format: biochemical, corn; details: 0.1 mM N-(phosphonomethyl)glycine, 0.1 mM 14C-PEP, 0.75 mM shikimate-3-Pi
Procedure: (§1) Assays are carried out generally according to the radiochemical method of Padgette et al 1987 (Archives of Biochemistry and Biophysics, 258(2) 564-573) with K+ ions as the major species of cationic counterion. Assays in a total volume of 50 μl, in 50 mM Hepes(KOH) pH 7.0 at 25° C., contain purified enzyme or plant extract (see below) diluted appropriately in Hepes pH 7.0 containing 10% glycerol, and 5 mM DTT, ^14C PEP either as variable substrate (for kinetic determinations) or fixed at 100 or 250 μM and shikimate 3 Phosphate (K+ salt) at 2 or 0.75 mM as indicated. Optionally, for assays of crude plant extracts, assays also contain 5 mM KF and/or 0.1 mM ammonium molybdate. Assays are started with the addition of ^14C phosphoenolpyruvate (cyclohexylammonium+salt) and stopped after 2-10 minutes (2 minutes is preferable) with the addition of 50 μl of a solution of 1 part 1M acetic acid and 9 parts ethanol. […] Apparent Km and Vmax values are determined by least squares fit to a hyperbola with simple weighting using the Grafit 3.09b from Erithacus Software Ltd. Km values are generally ascertained using 8-9 concentrations of variable substrate ranging from Km/2-10 Km and triplicate points. […]

[2] = tested on: resistant form of EPSPS; test: EPSPS assay of plant extracts +/- 0.1 mM glyphosate, resistant form; format: biochemical, rice; details: 0.1 mM N-(phosphonomethyl)glycine, 0.1 mM 14C-PEP, 0.75 mM shikimate-3-Pi, estimated
Procedure: as §1

[3] = target: T1, mutant form of rice EPSPS (Oryza sativa, UniProt A0A0N9WU17, P177S/T173I); test: EPSPS enzyme assay and kinetic constants, purified mutant rice EPSPS expressed in E. coli; format: biochemical
T1 sequence (A0A0N9WU17 72-515 T173I/P177S): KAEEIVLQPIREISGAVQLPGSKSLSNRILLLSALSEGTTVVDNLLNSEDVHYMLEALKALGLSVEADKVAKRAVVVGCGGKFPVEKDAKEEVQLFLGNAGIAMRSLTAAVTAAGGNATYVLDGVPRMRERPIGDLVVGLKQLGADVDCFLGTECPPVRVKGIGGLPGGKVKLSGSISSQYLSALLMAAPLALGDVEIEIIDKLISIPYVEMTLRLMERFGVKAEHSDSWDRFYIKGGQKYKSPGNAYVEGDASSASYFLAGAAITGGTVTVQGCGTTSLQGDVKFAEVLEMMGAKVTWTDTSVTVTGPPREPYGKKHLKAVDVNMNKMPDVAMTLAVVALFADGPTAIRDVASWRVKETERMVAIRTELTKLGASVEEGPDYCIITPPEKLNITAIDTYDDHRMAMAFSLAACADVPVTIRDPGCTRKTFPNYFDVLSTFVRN
Procedure: as §1

| Compound | inhibition of sensitive w/t EPSPS [1] [%] | inhibition of resistant (tolerant) EPSPS [2] [%] | inhibition of resistant (tolerant) EPSPS ([2]; listed as N-(phosphonomethyl)glycine) [%] | pIC50 [3] | pKi [3] |
| --- | --- | --- | --- | --- | --- |
| O=C(O)CNCP(=O)(O)O [glyphosate, N-phosphonomethylglycine] | > 98 | ~8 | < 8.5 |  |  |
| O=C(O)CNCP(=O)(O)O [potassium salt of glyphosate] |  |  |  | ~3.22 | ~3.70 |
